# Experiment: Aqueous stability studies (pH, temperature, ionic strength)
# Assay type: physicochemical
# Description: Aqueous stability studies for piperlongumine were conducted in three buffer systems: citrate (pH 3, 4, and 5); phosphate (pH 5, 6, and 7); and borate (pH 8 and 9). The ionic strength for the solutions was also varied, utilizing approximately 0.2 or 0.5 M. Each buffered sample was prepared with 10% acetonitrile as a cosolvent, then sealed and protected from light. Samples were stored at four different temperatures: 4°C (for samples at pH 3, 8 and 9 only), 26°C, 56°C and 67°C. Aliquots were regularly withdrawn for analysis. Changes in pH, if any, were also monitored. Stability studies were carried out for 18 months or until complete degradation occurred.
# Apparent first order degradation was also obtained for the 4, […] and 67°C degradation profiles. Degradation rate constants, k-values, for piperlongumine were calculated using the slopes of the trend lines of each profile.
# An Arrhenius plot of log k versus the reciprocal of the temperature (Fig 9) was utilized to determine the length of time it takes for piperlongumine to degrade 50% (T50) and 10% (T90). For a given pH the Arrhenius equation was utilized: Log k = log A − (Ea/2.303 RT) (1) Where: […]
# [1] = pH 3, citrate, ionic strength 0.2, 25°C
# [2] = pH 3, citrate, ionic strength 0.5, 25°C
# [3] = pH 5, citrate, ionic strength 0.2, 25°C
# [4] = pH 5, phosphate, ionic strength 0.2, 25°C
# [5] = pH 5, phosphate, ionic strength 0.5, 25°C
# [6] = pH 6, phosphate, ionic strength 0.2, 25°C
# [7] = pH 7, phosphate, ionic strength 0.2, 25°C
# [8] = pH 8, borate, ionic strength 0.2, 25°C
# [9] = pH 9, borate, ionic strength 0.2, 25°C
# [10] = pH 9, borate, ionic strength 0.5, 25°C
smiles,measurement,setting,value
"COc1cc(/C=C/C(=O)N2CCC=CC2=O)cc(OC)c1OC [piperlongumine, 1-[(2E)-3-(3,4,5-trimethoxyphenyl)prop-2-enoyl]-1,2,5,6-tetrahydropyridin-2-one]",Effect of ionic strength on degradation rate,"0.2 M vs 0.5 M, pH 9, borate buffer",No difference in degradation rate
same,Kinetics of thermal degradation,"56°C, several pH conditions",first order degradation kinetics
same,Effect of buffer species on degradation rate,"citrate vs phosphate, pH 5",degradation rates are similar
same,Effect of ionic strength on stability half-life,"increase from approximately 0.2 M to 0.5 M, pH 3 and pH 5",nominal effects
same,Ea,"pH 3, citrate, ionic strength 0.2",21.2 kcal/mol
same,T50 at 25°C,[1],69.6 weeks
same,T90 at 25°C,[1],10.6 weeks
same,k values 26°C,"pH 3, citrate, ionic strength 0.2, 26°C",0.0110 weeks^-1
same,k values 56°C,"pH 3, citrate, ionic strength 0.2, 56°C",0.3057 weeks^-1
same,k values 67°C,"pH 3, citrate, ionic strength 0.2, 67°C",0.7808 weeks^-1
same,Ea,"pH 3, citrate, ionic strength 0.5",22.1 kcal/mol
same,T50 at 25°C,[2],75.4 weeks
same,T90 at 25°C,[2],11.5 weeks
same,k values 26°C,"pH 3, citrate, ionic strength 0.5, 26°C",0.0101 weeks^-1
same,k values 56°C,"pH 3, citrate, ionic strength 0.5, 56°C",0.3413 weeks^-1
same,k values 67°C,"pH 3, citrate, ionic strength 0.5, 67°C",0.8383 weeks^-1
same,T90 without hydrogen peroxide,"pH 3 citrate, 26°C, from Table 1",about 9.5 weeks
same,Ea,"pH 4, citrate, ionic strength 0.2",20.3 kcal/mol
same,T50 at 25°C,"pH 4, citrate, ionic strength 0.2, 25°C",112.9 weeks
same,k values 26°C,"pH 4, citrate, ionic strength 0.2, 26°C",0.0067 weeks^-1
same,k values 56°C,"pH 4, citrate, ionic strength 0.2, 56°C",0.1739 weeks^-1
same,k values 67°C,"pH 4, citrate, ionic strength 0.2, 67°C",0.3813 weeks^-1
same,Ea,"pH 5, citrate, ionic strength 0.2",20.7 kcal/mol
same,T50 at 25°C,[3],87.6 weeks
same,T90 at 25°C,[3],13.3 weeks
same,k values 26°C,"pH 5, citrate, ionic strength 0.2, 26°C",0.0090 weeks^-1
same,k values 56°C,"pH 5, citrate, ionic strength 0.2, 56°C",0.2045 weeks^-1
same,k values 67°C,"pH 5, citrate, ionic strength 0.2, 67°C",0.6125 weeks^-1
same,Ea,"pH 5, phosphate, ionic strength 0.2",21.5 kcal/mol
same,T50 at 25°C,[4],101.5 weeks
same,T90 at 25°C,[4],15.4 weeks
same,k values 26°C,"pH 5, phosphate, ionic strength 0.2, 26°C",0.0076 weeks^-1
same,k values 56°C,"pH 5, phosphate, ionic strength 0.2, 56°C",0.2201 weeks^-1
same,k values 67°C,"pH 5, phosphate, ionic strength 0.2, 67°C",0.5741 weeks^-1
same,Ea,"pH 5, phosphate, ionic strength 0.5",20.3 kcal/mol
same,T50 at 25°C,[5],88.7 weeks
same,T90 at 25°C,[5],13.5 weeks
same,k values 26°C,"pH 5, phosphate, ionic strength 0.5, 26°C",0.0090 weeks^-1
same,k values 56°C,"pH 5, phosphate, ionic strength 0.5, 56°C",0.1764 weeks^-1
same,k values 67°C,"pH 5, phosphate, ionic strength 0.5, 67°C",0.5741 weeks^-1
same,Ea,"pH 6, phosphate, ionic strength 0.2",22.7 kcal/mol
same,T50 at 25°C,[6],75.5 weeks
same,T90 at 25°C,[6],11.5 weeks
same,k values 26°C,"pH 6, phosphate, ionic strength 0.2, 26°C",0.0108 weeks^-1
same,k values 56°C,"pH 6, phosphate, ionic strength 0.2, 56°C",0.2919 weeks^-1
same,k values 67°C,"pH 6, phosphate, ionic strength 0.2, 67°C",1.1652 weeks^-1
same,Ea,"pH 7, phosphate, ionic strength 0.2",22.5 kcal/mol
same,T50 at 25°C,[7],16.0 weeks
same,T90 at 25°C,[7],2.4 weeks
same,k values 26°C,"pH 7, phosphate, ionic strength 0.2, 26°C",0.0506 weeks^-1
same,k values 56°C,"pH 7, phosphate, ionic strength 0.2, 56°C",1.3607 weeks^-1
same,k values 67°C,"pH 7, phosphate, ionic strength 0.2, 67°C",5.1370 weeks^-1
same,Ea,"pH 8, borate, ionic strength 0.2",19.8 kcal/mol
same,k values 4°C,"pH 8, borate, ionic strength 0.2, 4°C",0.0232 weeks^-1
same,T50 at 25°C,[8],2.0 weeks
same,T90 at 25°C,[8],0.3 weeks
same,k values 26°C,"pH 8, borate, ionic strength 0.2, 26°C",0.5120 weeks^-1
same,k values 56°C,"pH 8, borate, ionic strength 0.2, 56°C",7.2924 weeks^-1
same,k values 67°C,"pH 8, borate, ionic strength 0.2, 67°C",20.933 weeks^-1
same,Ea,"pH 9, borate, ionic strength 0.2",22.7 kcal/mol
same,k values 4°C,"pH 9, borate, ionic strength 0.2, 4°C",0.1182 weeks^-1
same,T50 at 25°C,[9],0.3 weeks
same,T90 at 25°C,[9],0.05 weeks
same,k values 26°C,"pH 9, borate, ionic strength 0.2, 26°C",2.4375 weeks^-1
same,Ea,"pH 9, borate, ionic strength 0.5",22.7 kcal/mol
same,k values 4°C,"pH 9, borate, ionic strength 0.5, 4°C",0.1171 weeks^-1
same,T50 at 25°C,[10],0.3 weeks
same,T90 at 25°C,[10],0.05 weeks
same,k values 26°C,"pH 9, borate, ionic strength 0.5, 26°C",2.4372 weeks^-1
same,pH of maximum stability,"pH degradation rate profile, 26, 56, 67°C",~4
same,Stability in pH degradation rate profile,"pH values ≥ 7 and 3, various temperatures",significant instability
same,Major degradation products,"stability samples at pH 3, 5 and 8, LC-MS","3,4,5- trimethoxycinnamic acid and piperlongumic acid"
